Data as given in ChEMBL document CHEMBL5126522, “In vitro and in vivo evaluation of 211At-labeled fibroblast activation protein inhibitor for glioma treatment” (Bioorg Med Chem, 2022).
Calls of active or inactive are those of the source.

What was measured:
U-87MG ATCC [1] = assay: Induction of apoptosis in human U-87 MG cells assessed as fragmented and condensed chromatin at 18.5 to 185 kBq measured after 24 hrs by DAPI staining based confocal microscopy; assay type: functional, cell-based; conditions: dose 18.5-185 kBq, tested as the 211At-labelled form
U-87MG ATCC [2] = assay: Induction of cell cycle arrest in human U-87 MG cells assessed as increase in proportion of cells at S phase at 185 kBq incubated in radioactive medium for 12 hrs followed by incubation in non-radioactive medium for 24 hrs by PI staining based flow cytometry; assay type: functional; conditions: time 36.0 hrs, tested as the 211At-labelled form
U-87MG ATCC [3] = assay: Cytotoxicity against human U-87 MG cells assessed as reduction in cell viability incubated in radioactive medium for 12 hrs followed by incubation in non-radioactive medium for 24 hrs by CCK8 assay; assay type: functional, cell-based; conditions: dose 12-92 kBq, time 36.0 hrs, tested as the 211At-labelled form, DDE = dose-dependent effect
U-87MG ATCC [4] = assay: Inhibition of colony formation in human U-87 MG cells incubated in radioactive medium for 12 hrs followed by incubation in non-radioactive medium for 14 days by crystal violet staining based analysis; assay type: functional, cell-based; conditions: dose 4.6-18.5 kBq, time 852.0 hrs, tested as the 211At-labelled form, DDE = dose-dependent effect
U-87MG ATCC [5] = assay: Antitumor activity against human U-87 MG cells xenografted in BALB/c nude mouse assessed as reduction in Ki67 expression in tumor at 0.55 MBq, it measured after 12 days by immunohistochemical analysis; assay type: functional, cell-based; conditions: time 12.0 day, tested as the 211At-labelled form
U-87MG ATCC [6] = assay: Anti-tumor activity against human U-87 MG cells xenografted in BALB/c nude mouse assessed as reduction in tumor growth administered IT measured every 3 days by electronic caliper analysis; assay type: functional; conditions: dose 0.18-0.55 MBq, DDE = dose-dependent effect, tested as the 211At-labelled form

N#C[C@@H]1CC(F)(F)CN1C(=O)CNC(=O)c1ccnc2ccc(OCCCN3CCN(C(=O)c4ccc([At])cc4)CC3)cc12
active: Activity (U-87MG ATCC [1]) | Activity (U-87MG ATCC [2]) | Activity (U-87MG ATCC [3]) Dde | inhibition (U-87MG ATCC [4]) Dde | Activity (U-87MG ATCC [5]) | Activity (U-87MG ATCC [6]) Dde
